Numbers after ± are expanded uncertainties.
Experiment: xn = mol fraction of the nth substance listed
Conditions: Liquid

SMILES: BrCBr [dibromomethane] + CCOC(C)=O
- mass density (288.15 K, 101.33 kPa, x1 = 0.0522): 966.58 ± 0.38 kg/m3
- mass density (288.15 K, 101.33 kPa, x1 = 0.2014): 1147.77 ± 0.67 kg/m3
- mass density (288.15 K, 101.33 kPa, x1 = 0.3006): 1277.79 ± 0.98 kg/m3
- mass density (288.15 K, 101.33 kPa, x1 = 0.4028): 1419.89 ± 1.3 kg/m3
- mass density (288.15 K, 101.33 kPa, x1 = 0.4852): 1542.09 ± 1.6 kg/m3
- mass density (288.15 K, 101.33 kPa, x1 = 0.6012): 1725.96 ± 2.1 kg/m3
- mass density (288.15 K, 101.33 kPa, x1 = 0.7001): 1895.61 ± 2.6 kg/m3
- mass density (288.15 K, 101.33 kPa, x1 = 0.8077): 2095.3 ± 3.1 kg/m3
- mass density (288.15 K, 101.33 kPa, x1 = 0.8997): 2281.45 ± 3.6 kg/m3
- mass density (288.15 K, 101.33 kPa, x1 = 1): 2501.88 ± 4.2 kg/m3
- mass density (298.15 K, 101.33 kPa, x1 = 0.0522): 954.36 ± 0.4 kg/m3
- mass density (298.15 K, 101.33 kPa, x1 = 0.2014): 1133.83 ± 0.64 kg/m3
- mass density (298.15 K, 101.33 kPa, x1 = 0.3006): 1262.61 ± 0.95 kg/m3
- mass density (298.15 K, 101.33 kPa, x1 = 0.4028): 1404.06 ± 1.3 kg/m3
- mass density (298.15 K, 101.33 kPa, x1 = 0.4852): 1525 ± 1.6 kg/m3
- mass density (298.15 K, 101.33 kPa, x1 = 0.6012): 1707.9 ± 2.1 kg/m3
- mass density (298.15 K, 101.33 kPa, x1 = 0.7001): 1876.1 ± 2.5 kg/m3
- mass density (298.15 K, 101.33 kPa, x1 = 0.8077): 2074.59 ± 3 kg/m3
- mass density (298.15 K, 101.33 kPa, x1 = 0.8997): 2259.57 ± 3.5 kg/m3
- mass density (298.15 K, 101.33 kPa, x1 = 1): 2478.37 ± 4.1 kg/m3
- mass density (298.15 K, 200 kPa, x1 = 0.2995): 1260.2 ± 0.95 kg/m3
- mass density (298.15 K, 200 kPa, x1 = 0.5013): 1549.45 ± 1.7 kg/m3
- mass density (298.15 K, 200 kPa, x1 = 0.6994): 1874.05 ± 2.5 kg/m3
- mass density (298.15 K, 500 kPa, x1 = 0.2995): 1260.63 ± 0.97 kg/m3
- mass density (298.15 K, 600 kPa, x1 = 0.5013): 1550.03 ± 1.7 kg/m3
- mass density (298.15 K, 600 kPa, x1 = 0.6994): 1874.73 ± 2.6 kg/m3
- mass density (298.15 K, 1100 kPa, x1 = 0.2995): 1261.34 ± 1 kg/m3
- mass density (298.15 K, 1100 kPa, x1 = 0.5013): 1550.84 ± 1.8 kg/m3
- mass density (298.15 K, 1200 kPa, x1 = 0.6994): 1875.51 ± 2.7 kg/m3
- mass density (298.15 K, 1900 kPa, x1 = 0.5013): 1551.83 ± 1.9 kg/m3
- mass density (298.15 K, 2100 kPa, x1 = 0.2995): 1262.47 ± 1.1 kg/m3
- mass density (298.15 K, 2200 kPa, x1 = 0.6994): 1876.85 ± 2.9 kg/m3
- mass density (298.15 K, 2900 kPa, x1 = 0.2995): 1263.67 ± 1.1 kg/m3
- mass density (298.15 K, 2900 kPa, x1 = 0.5013): 1553.29 ± 2 kg/m3
- mass density (298.15 K, 2900 kPa, x1 = 0.6994): 1878.02 ± 3 kg/m3
- mass density (298.15 K, 3700 kPa, x1 = 0.2995): 1264.58 ± 1.1 kg/m3
- mass density (298.15 K, 3900 kPa, x1 = 0.5013): 1554.65 ± 2.1 kg/m3
- mass density (298.15 K, 4200 kPa, x1 = 0.6994): 1879.75 ± 3.3 kg/m3
- mass density (298.15 K, 4700 kPa, x1 = 0.5013): 1555.68 ± 2.2 kg/m3
- mass density (298.15 K, 4800 kPa, x1 = 0.2995): 1265.79 ± 1.2 kg/m3
- mass density (298.15 K, 5200 kPa, x1 = 0.6994): 1881.21 ± 3.5 kg/m3
- mass density (298.15 K, 5900 kPa, x1 = 0.2995): 1267.24 ± 1.3 kg/m3
- mass density (298.15 K, 6000 kPa, x1 = 0.5013): 1557.43 ± 2.4 kg/m3
- mass density (298.15 K, 6000 kPa, x1 = 0.6994): 1882.25 ± 3.6 kg/m3
- mass density (298.15 K, 6700 kPa, x1 = 0.5013): 1558.4 ± 2.5 kg/m3
- mass density (298.15 K, 6800 kPa, x1 = 0.2995): 1268.29 ± 1.3 kg/m3
- mass density (298.15 K, 7000 kPa, x1 = 0.6994): 1883.78 ± 3.9 kg/m3
- mass density (298.15 K, 7900 kPa, x1 = 0.5013): 1560 ± 2.6 kg/m3
- mass density (298.15 K, 8000 kPa, x1 = 0.2995): 1269.58 ± 1.4 kg/m3
- mass density (298.15 K, 8100 kPa, x1 = 0.6994): 1885.33 ± 4.1 kg/m3
- mass density (298.15 K, 8600 kPa, x1 = 0.5013): 1561.02 ± 2.7 kg/m3
- mass density (298.15 K, 8900 kPa, x1 = 0.2995): 1270.84 ± 1.5 kg/m3
- mass density (298.15 K, 9100 kPa, x1 = 0.6994): 1887 ± 4.3 kg/m3
- mass density (298.15 K, 9800 kPa, x1 = 0.2995): 1271.89 ± 1.5 kg/m3
- mass density (298.15 K, 10000 kPa, x1 = 0.5013): 1562.92 ± 2.9 kg/m3
- mass density (298.15 K, 10000 kPa, x1 = 0.6994): 1888.23 ± 4.5 kg/m3
- mass density (298.15 K, 10400 kPa, x1 = 0.6994): 1888.73 ± 4.5 kg/m3
- mass density (298.15 K, 12000 kPa, x1 = 0.5013): 1565.67 ± 3.2 kg/m3
- mass density (298.15 K, 12100 kPa, x1 = 0.2995): 1274.55 ± 1.7 kg/m3
- mass density (298.15 K, 12300 kPa, x1 = 0.6994): 1891.62 ± 4.9 kg/m3
- mass density (298.15 K, 13800 kPa, x1 = 0.5013): 1568.24 ± 3.4 kg/m3
- mass density (298.15 K, 14000 kPa, x1 = 0.2995): 1276.89 ± 1.8 kg/m3
- mass density (298.15 K, 14000 kPa, x1 = 0.6994): 1894.37 ± 5.3 kg/m3
- mass density (298.15 K, 15800 kPa, x1 = 0.2995): 1278.96 ± 1.9 kg/m3
- mass density (298.15 K, 15800 kPa, x1 = 0.5013): 1570.87 ± 3.7 kg/m3
- mass density (298.15 K, 15900 kPa, x1 = 0.6994): 1897.08 ± 5.7 kg/m3
- mass density (298.15 K, 17600 kPa, x1 = 0.5013): 1573.34 ± 3.9 kg/m3
- mass density (298.15 K, 17800 kPa, x1 = 0.6994): 1900.02 ± 6.1 kg/m3
- mass density (298.15 K, 17900 kPa, x1 = 0.2995): 1281.5 ± 2.1 kg/m3
- mass density (298.15 K, 19800 kPa, x1 = 0.5013): 1576.4 ± 4.2 kg/m3
- mass density (298.15 K, 19800 kPa, x1 = 0.6994): 1903.09 ± 6.5 kg/m3
- mass density (298.15 K, 20100 kPa, x1 = 0.2995): 1284.19 ± 2.2 kg/m3
- mass density (308.15 K, 101.33 kPa, x1 = 0.0522): 940.97 ± 0.42 kg/m3
- mass density (308.15 K, 101.33 kPa, x1 = 0.2014): 1118.5 ± 0.61 kg/m3
- mass density (308.15 K, 101.33 kPa, x1 = 0.3006): 1245.98 ± 0.91 kg/m3
- mass density (308.15 K, 101.33 kPa, x1 = 0.4028): 1385.7 ± 1.3 kg/m3
- mass density (308.15 K, 101.33 kPa, x1 = 0.4852): 1505.67 ± 1.6 kg/m3
- mass density (308.15 K, 101.33 kPa, x1 = 0.6012): 1686.98 ± 2 kg/m3
- mass density (308.15 K, 101.33 kPa, x1 = 0.7001): 1854.24 ± 2.5 kg/m3
- mass density (308.15 K, 101.33 kPa, x1 = 0.8077): 2050.67 ± 3 kg/m3
- mass density (308.15 K, 101.33 kPa, x1 = 0.8997): 2234.29 ± 3.5 kg/m3
- mass density (308.15 K, 101.33 kPa, x1 = 1): 2451.74 ± 4 kg/m3
